Type in all cases: in vivo
For experiment [1], the system named is STZ-induced diabetic mice. Briefly: Body weight of STZ-induced diabetic mice. As to conditions: for Body Weight: dimethylbiguanide 185 mg/kg intragastric. The method, then:
(§1) After 70 mice were adaptively fed for 3 days, they were fasted and kept feeding water for 12 hours, 0.1 mol/L STZ-streptozotocin solution was injected intraperitoneally, the injection volume was 60 mg/kg, and the injection was continued for 5 days. Seven days after the injection, the mice were fasted and kept feeding water for 8 hours, and the tail was cut to collect blood and the fasting blood glucose of the mice was measured. The model was considered as a successful model with a blood glucose concentration greater than 16.5 mmol/L. Diabetic mice successfully modeled (50) were randomly divided into 5 groups, namely: a high glucose model group, a dimethylbiguanid group (185 mg/kg), ATP1-1 high dose group (140 mg/kg), ATP1-1 medium dose group (70 mg/kg), ATP1-1 low dose group (35 mg/kg), 10 mice in each group, and 10 normal mice were randomly selected as a normal control group. All groups were administrated by intragastric administration, and the normal control group and high glucose model group were administrated the same amount of distilled water. after the successful modelling, the body weight, diet and water consumption and blood glucose of the mice before administration and 1, 2, 3, 4, 5, and 6 weeks after administration were measured, and the glucose tolerance was measured at the end of the experiment.

The subject of experiment [2] is diabetic mice. Briefly: Diet and water consumption of diabetic mice. Particulars: dimethylbiguanide 185 mg/kg, during the administration period, P<0.01. The method, then: as §1
Experiment [3] relates to diabetic mice. Briefly: Fasting blood glucose in diabetic mice. As to conditions: dimethylbiguanide 185 mg/kg. How it is done:
as §1

As to `CN(C)C(=N)NC(=N)N` [Dimethylbiguanide, dimethylbiguanide], the “Body Weight” value in experiment [1] (Week 0 (before administration), x±s, n=8) is 19.48 ± .78 g; in experiment [1] (Week 1), 19.72 ± .77 g; in experiment [1] (Week 2), 20.40 ± .78 g; in experiment [1] (Week 3), 20.94 ± .73 g; in experiment [1] (Week 4), 21.49 ± .84 g; in experiment [1] (Week 5), 21.70 ± .90 g. Further, in experiment [1] (Week 6), the “Body Weight” value is 21.89 ± .89 g. Also, in experiment [1] (dimethylbiguanide 185 mg/kg, after 6 weeks of administration, P<0.05), the “body weight compared with high glucose model group” value is recorded as “significantly higher”. Moreover, the “diet and water consumption compared with high glucose model group” value in the experiment on diabetic mice [2] was “significantly reduced”. Further, the “fasting blood sugar compared with high glucose group” value in the experiment with diabetic mice [3] (after three weeks of administration, P<0.05) is given as “significantly different”. Also, the “blood glucose inhibition rate” value in the experiment on diabetic mice [3] (at the end of the administration (6 weeks)) was found to be 46.9%.

The values above are taken from patent publication US20210187008A1, “USE OF ACANTHOPANAX TRIFOLIATUS POLYSACCHARIDE ATP1-1 IN PREPARATION OF DRUGS FOR TREATMENT OF DIABETES” (GUANGDONG PHARMACEUTICAL UNIVERSITY, priority 2019, published 2021).
